From patent US11946064B2, “Compositions and therapeutic methods of microRNA gene delivery” (The Brigham and Women's Hospital, Inc., priority 2018, dated 2024)

System: glioblastoma initiating cells (GICs)
Test: survival of mice implanted intracranially with GICs and treated with TMZ
Type: in vivo, athymic nude mice
Details: control cells; intraperitoneal TMZ 20 mg/Kg/day for 5 days
Protocol: FIGS. 6A-6F illustrates the effect of clustered microRNAs on GBM cells treated with TMZ or irradiation. […] Dotted lines represent animals treated with TMZ. Different line colors represent the different overexpressed clusters.
Furthermore, in an in vivo model, mice were intracranially implanted with glioblastoma initiating cells (GICs) expressing either control vector, Cluster 3 or Cluster 5 vector and treated with intraperitoneal TMZ injections (20 mg/Kg/day for 5 days).

Cn1nnc2c(C(N)=O)ncn2c1=O [TMZ, temozolomide]
survival benefit: ~40%
